Test results reported in ChEMBL document CHEMBL1140641, “Novel ebselen-porphyrin conjugates: synthesis and nucleic acid interaction study” (Bioorg Med Chem Lett, 2007).

How the values were obtained:
Format in all cases: nucleic-acid assay
Design in all cases: scale not given: the % may be the effect or the level left
Settings in all cases: Escherichia coli
Nucleic Acid [1] = test: DNA photocleavage activity assessed as pBluescript form II levels at 1 uM by plasmid DNA relaxation assay
Nucleic Acid [2] = test: DNA photocleavage activity assessed as pBluescript form II levels at 5 uM by plasmid DNA relaxation assay
Nucleic Acid [3] = test: DNA photocleavage activity assessed as pBluescript form II levels at 10 uM by plasmid DNA relaxation assay
Nucleic Acid [4] = test: DNA photocleavage activity assessed as pBluescript form II levels at 20 uM by plasmid DNA relaxation assay

Activity (Nucleic Acid [1]): 12%
Activity (Nucleic Acid [2]): 16%
Activity (Nucleic Acid [3]): 18%
Activity (Nucleic Acid [4]): 21%
Compound: O=c1c2ccccc2[se]n1-c1ccc(-c2c3nc(c(-c4ccccc4)c4ccc([nH]4)c(-c4ccccc4)c4nc(c(-c5ccccc5)c5ccc2[nH]5)C=C4)C=C3)cc1
